These compounds were tested against T1, GLP-1R (Homo sapiens, UniProt P43220) (assay: EC20 GLP-1(9-36) PAM cAMP assay: dose response of compound in the presence of fixed concentration of GLP-1(9-36)). Details: dose response of compound in presence of fixed concentration of GLP-1(9-36), GLP-1R CRE-bla CHO-K1 cells, read-out: EC20 GLP-1(9-36) PAM EC50.
T1 construct: host or cells: GLP-1R CRE-bla CHO-K1 cells
Format: cell-based
Description: EC20 GLP-1(9-36) PAM cAMP Assay: Dose Response of Compound in the Presence of Fixed Concentration of GLP-1 (9-36).
GLP-1R CRE-bla CHO-K1 cells cultured in growth medium (DMEM-High glucose, 10% dialyzed FBS, 0.1 mM NEAA, 25 mM Hepes, 100 U/mL penicillin/100 μg/mL streptomycin, 5 μg/mL Blasticidin, 600 μg/mL Hygromycin) were trypsinized and plated in suspension into 384 well white flat bottom plates at 5000 cells/well in 12 μL assay buffer (Hanks Balanced Salt solution, 10 mM hepes, 0.1% BSA, pH 7.4). A 5× compound dose response curve (12-point) was generated in assay buffer containing 1.5 mM IBMX, 4% DMSO. GLP-1(9-36) was diluted to 4.2 μM in assay buffer containing 1.5 mM IMBX and 4% DMSO. The 5× compound dose response was added (3 μL), followed by 0.5 μL of GLP-1(9-36) and cells were incubated for 30 min at 37° C. Direct detection of cAMP was carried out using DiscoveRx HitHunter cAMP kit according to manufacturer's instructions and luminescence was read using a SpectraMax M5 plate reader. Luminescence was converted to total cAMP using a cAMP standard curve and data was analyzed by non-linear regression to determine the EC50 and Emax.
GLP-1(7-36): […]-NH2 (SEQ ID NO: 2). GLP-1(9-36): […]-NH2 (SEQ ID NO: 3). GLP-1(7-36) was purchased from GenScript. GLP-1(9-36) was purchased from Biopeptide Co., Inc.
The EC20GLP-1(9-36) PAM Activity range is denoted as follows: + denotes activity <0.8 μM, ++ denotes activity between 0.8 and 2.5 μM, +++ denotes activity between 2.5 and 5 μM, and ++++ denotes activity 5 to 10 μM.

T1 sequence (P43220 24-463): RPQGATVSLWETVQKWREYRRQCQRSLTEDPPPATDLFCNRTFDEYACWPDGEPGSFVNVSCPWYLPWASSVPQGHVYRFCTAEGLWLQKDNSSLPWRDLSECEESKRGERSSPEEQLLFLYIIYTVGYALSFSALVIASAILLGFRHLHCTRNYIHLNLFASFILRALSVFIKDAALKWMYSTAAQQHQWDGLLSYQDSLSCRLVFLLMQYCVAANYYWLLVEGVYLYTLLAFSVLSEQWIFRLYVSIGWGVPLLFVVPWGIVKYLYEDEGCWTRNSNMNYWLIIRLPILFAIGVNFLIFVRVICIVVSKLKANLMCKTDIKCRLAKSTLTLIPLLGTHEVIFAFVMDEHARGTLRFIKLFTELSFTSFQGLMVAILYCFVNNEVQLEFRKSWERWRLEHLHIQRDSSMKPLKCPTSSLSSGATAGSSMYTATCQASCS
T1 sequence (P01275 100-127 partner limits assumed): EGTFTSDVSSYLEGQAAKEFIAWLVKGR

Structure (SMILES) | EC50
CCCCCCCOc1ccc(-c2cnc(-c3ccc(C[C@H](NC(=O)c4ccc(C(C)(C)C)cc4)C(=O)N[C@@H](Cc4ccc(O)cc4)C(=O)O)cc3)nc2)cc1 [Compound 451] | < 800 nM
CCCCCCCOc1ccc(-c2cnc(-c3ccc(C[C@H](NC(=O)c4ccc(C(C)(C)C)cc4)C(=O)N[C@@H](CN)C(=O)O)cc3)nc2)cc1 [Compound 452] | 2500 to 5000 nM
CCCCCCCOc1ccc(-c2cnc(-c3ccc(C[C@H](NC(=O)c4ccc(C(C)(C)C)cc4)C(=O)NC(C(=O)O)c4ccc(C(F)(F)F)cc4)cc3)nc2)cc1 (some centres unmarked) [Compound 453] | 800 to 2500 nM
CCCCCCCOc1ccc(-c2cnc(-c3ccc(C[C@H](NC(=O)c4ccc(C(C)(C)C)cc4)C(=O)NC(C(=O)O)c4ccc(C)cc4)cc3)nc2)cc1 (some centres unmarked) [Compound 454] | 800 to 2500 nM
CCCCCCCOc1ccc(-c2cnc(-c3ccc(C[C@H](NC(=O)c4ccc(C(C)(C)C)cc4)C(=O)NC(C(=O)O)c4cccs4)cc3)nc2)cc1 (some centres unmarked) [Compound 455] | < 800 nM
CC(C)CCOc1ccc(-c2cnc(-c3ccc(C[C@H](NC(=O)c4ccc(C(C)(C)C)cc4)C(=O)NCCC(=O)O)cc3)nc2)cc1 [Compound 456] | 800 to 2500 nM
CCCCOCCOc1ccc(-c2cnc(-c3ccc(C[C@H](NC(=O)c4ccc(C(C)(C)C)cc4)C(=O)NCCC(=O)O)cc3)nc2)cc1 [Compound 457] | 2500 to 5000 nM
CC(C)CCCOc1ccc(-c2cnc(-c3ccc(C[C@H](NC(=O)c4ccc(C(C)(C)C)cc4)C(=O)NCCC(=O)O)cc3)nc2)cc1 [Compound 458] | 800 to 2500 nM
CCCCCCCOc1ccc(-c2cnc(-c3ccc(CC(NC(=O)c4ccc(C(C)(C)C)s4)C(=O)NCCCCC(=O)O)cc3)nc2)cc1 (centres unmarked) [Compound 459] | 800 to 2500 nM
CCCCCCCOc1ccc(-c2cnc(-c3ccc(CC(NC(=O)c4ccc(C(C)(C)C)s4)C(=O)NCCCCCC(=O)O)cc3)nc2)cc1 (centres unmarked) [Compound 460] | 5000 to 10000 nM
CCCCCCCOc1ccc(-c2cnc(-c3ccc(C[C@H](NC(=O)c4ccc(C(C)(C)C)s4)C(=O)NC[C@@H](CO)C(=O)O)cc3)nc2)cc1 [Compound 461] | 800 to 2500 nM
CCCCCCCOc1ccc(-c2cnc(-c3ccc(C[C@H](NC(=O)c4ccc(C(C)(C)C)s4)C(=O)NCC(O)CO)cc3)nc2)cc1 (some centres unmarked) [Compound 462] | 5000 to 10000 nM
CCCCCCCOc1ccc(-c2cnc(-c3ccc(C[C@H](NC(=O)c4ccc(C(C)(C)C)s4)C(=O)NCC4CCNCC4)cc3)nc2)cc1 [Compound 463] | 5000 to 10000 nM
CCCCCCCOc1ccc(-c2cnc(-c3ccc(C[C@H](NC(=O)c4ccc(C(C)(C)C)s4)C(=O)N4CCC(NC)CC4)cc3)nc2)cc1 [Compound 464] | 5000 to 10000 nM
CCCCCCCOc1ccc(-c2cnc(-c3ccc(C[C@H](NC(=O)c4ccc(C(C)(C)C)cc4)C(=O)N[C@H](CN)C(=O)O)cc3)nc2)cc1 [Compound 465] | 800 to 2500 nM
CCCCCCCOc1ccc(-c2cnc(-c3ccc(C[C@H](NC(=O)c4ccc(C(C)(C)C)cc4)C(=O)N[C@H](CCCCN)C(=O)O)cc3)nc2)cc1 [Compound 466] | 800 to 2500 nM
CCCCCCCOc1ccc(-c2cnc(-c3ccc(C[C@H](NC(=O)c4ccc(C(C)(C)C)cc4)C(=O)NC(Cn4cncn4)C(=O)O)cc3)nc2)cc1 (stereo partly drawn) [Compound 467, 2-((S)-2-(4-(tert-butyl)benzamido)-3-(4-(5-(4-(heptyloxy)phenyl)pyrimidin-2-yl)phenyl)propanamido)-3-(1H-1,2,4-triazol-1-yl)propanoic acid] | < 800 nM
CCCCCCCOc1ccc(-c2cnc(-c3ccc(C[C@H](NC(=O)c4ccc(C(C)(C)C)cc4)C(=O)NC(C(=O)O)c4cccnc4)cc3)nc2)cc1 (some centres unmarked) [Compound 468] | < 800 nM
CCCCCCCOc1ccc(-c2cnc(-c3ccc(C[C@H](NC(=O)c4ccc(C(C)(C)C)cc4)C(=O)N[C@@H](CCCN)C(=O)O)cc3)nc2)cc1 [Compound 469] | 800 to 2500 nM
CCCCCCCOc1ccc(-c2cnc(-c3ccc(C[C@H](NC(=O)c4cc(C)cs4)C(=O)O)cc3)nc2)cc1 [Compound 470] | < 800 nM

The next lines start with the values.

EC50 | Structure (SMILES)
5000 to 10000 nM | COCCCCCOc1ccc(-c2cnc(-c3ccc(C[C@H](NC(=O)c4ccc(C(C)(C)C)cc4)C(=O)NCCC(=O)O)cc3)nc2)cc1 [Compound 471]
800 to 2500 nM | CC(C)CCCCOc1ccc(-c2cnc(-c3ccc(C[C@H](NC(=O)c4ccc(C(C)(C)C)cc4)C(=O)NCCC(=O)O)cc3)nc2)cc1 [Compound 472, (S)-3-(2-(4-(tert-butyl)benzamido)-3-(4-(5-(4-((5-methylhexyl)oxy)phenyl)-pyrimidin-2-yl)phenyl)propanamido)propanoic acid]
5000 to 10000 nM | CCC(C)COc1ccc(-c2cnc(-c3ccc(C[C@H](NC(=O)c4ccc(C(C)(C)C)cc4)C(=O)NCCC(=O)O)cc3)nc2)cc1 (some centres unmarked) [Compound 473]
800 to 2500 nM | CC(C)(C)c1ccc(C(=O)N[C@@H](Cc2ccc(-c3ncc(-c4ccc(OCCC5CCCCC5)cc4)cn3)cc2)C(=O)NCCC(=O)O)cc1 [Compound 474, (S)-3-(2-(4-(tert-butyl)benzamido)-3-(4-(5-(4-(2-cyclohexylethoxy)phenyl)-pyrimidin-2-yl)phenyl)propanamido)propanoic acid]
800 to 2500 nM | CCCCCCCOc1ccc(-c2cnc(-c3ccc(C[C@H](NC(=O)c4ccc(C(C)(C)C)cc4)C(=O)N[C@@H](CCN)C(=O)O)cc3)nc2)cc1 [Compound 475]
2500 to 5000 nM | CCCCCCCOc1ccc(-c2cnc(-c3ccc(C[C@H](NC(=O)c4ccc(C(C)(C)C)cc4)C(=O)N[C@H](CCN)C(=O)O)cc3)nc2)cc1 [Compound 476]
< 800 nM | CCCCCCCOc1ccc(-c2cnc(-c3ccc(C[C@H](NC(=O)c4ccc(C(C)(C)C)cc4)C(=O)N[C@@H](CC(=O)NC)C(=O)O)cc3)nc2)cc1 [Compound 477, N^2—((S)-2-(4-(tert-butyl)benzamido)-3-(4-(5-(4-(heptyloxy)phenyl)pyrimidin-2-yl)phenyl)propanoyl)-N^4-methyl-L-asparagine]
< 800 nM | CCCCCCCOc1ccc(-c2cnc(-c3ccc(C[C@H](NC(=O)c4ccc(C(C)(C)C)cc4)C(=O)N[C@@H](CC(=O)N(C)C)C(=O)O)cc3)nc2)cc1 [Compound 478]
< 800 nM | CCCCCCCOc1ccc(-c2cnc(-c3ccc(C[C@H](NC(=O)c4ccc(C(C)(C)C)cc4)C(=O)N[C@@H](CC(=O)NC4CC4)C(=O)O)cc3)nc2)cc1 [Compound 479]
800 to 2500 nM | CCCCCCCOc1ccc(-c2cnc(-c3ccc(C[C@H](NC(=O)c4ccc(C(C)(C)C)cc4)C(=O)N[C@@H](CC(=O)NCC(=O)O)C(=O)O)cc3)nc2)cc1 [Compound 480]
800 to 2500 nM | CCCCCCCOc1ccc(-c2cnc(-c3ccc(C[C@H](NC(=O)c4ccc(C(C)(C)C)cc4)C(=O)N[C@@H](CC(=O)N[C@@H](CO)C(=O)O)C(=O)O)cc3)nc2)cc1 [Compound 481]
< 800 nM | CCCCCCCOc1ccc(-c2cnc(-c3ccc(C[C@H](NC(=O)c4ccc(C(C)(C)C)cc4)C(=O)N[C@@H](CC(=O)NCC(N)=O)C(=O)O)cc3)nc2)cc1 [Compound 482]
800 to 2500 nM | CCCCCCCOc1ccc(-c2cnc(-c3ccc(C[C@H](NC(=O)c4ccc(C(C)(C)C)cc4)C(=O)N[C@@H](CC(=O)N[C@@H](C)C(=O)O)C(=O)O)cc3)nc2)cc1 [Compound 483]
800 to 2500 nM | CCCCCCCOc1ccc(-c2cnc(-c3ccc(C[C@H](NC(=O)c4ccc(C(C)(C)C)cc4)C(=O)N[C@@H](CC(=O)NCCN)C(=O)O)cc3)nc2)cc1 [Compound 484]
5000 to 10000 nM | CCCCCCCOc1ccc(-c2cnc(-c3ccc(C[C@H](NC(=O)c4ccc(C(C)(C)C)cc4)C(=O)N[C@@H](CC(=O)NCCN(C)C)C(=O)O)cc3)nc2)cc1 [Compound 485]

From patent US10034886B2, “GLP-1 receptor modulators” (Celgene International II SÀRL, priority 2014, dated 2018)
